This passage reports IC50 results from BindingDB's records for patent US10435400 (Shanghai Haiyan Pharmaceutical Technology, 2019).

The IC50 is the concentration needed to halve the response being measured. Read a high IC50 as a need for much substance.

In the test the target is Epidermal growth factor receptor (Homo sapiens, UniProt P00533). Briefly: Wild Type EGFR and Mutant EGFR Kinase Inhibition Test.
Chain of Epidermal growth factor receptor (P00533 whole entry): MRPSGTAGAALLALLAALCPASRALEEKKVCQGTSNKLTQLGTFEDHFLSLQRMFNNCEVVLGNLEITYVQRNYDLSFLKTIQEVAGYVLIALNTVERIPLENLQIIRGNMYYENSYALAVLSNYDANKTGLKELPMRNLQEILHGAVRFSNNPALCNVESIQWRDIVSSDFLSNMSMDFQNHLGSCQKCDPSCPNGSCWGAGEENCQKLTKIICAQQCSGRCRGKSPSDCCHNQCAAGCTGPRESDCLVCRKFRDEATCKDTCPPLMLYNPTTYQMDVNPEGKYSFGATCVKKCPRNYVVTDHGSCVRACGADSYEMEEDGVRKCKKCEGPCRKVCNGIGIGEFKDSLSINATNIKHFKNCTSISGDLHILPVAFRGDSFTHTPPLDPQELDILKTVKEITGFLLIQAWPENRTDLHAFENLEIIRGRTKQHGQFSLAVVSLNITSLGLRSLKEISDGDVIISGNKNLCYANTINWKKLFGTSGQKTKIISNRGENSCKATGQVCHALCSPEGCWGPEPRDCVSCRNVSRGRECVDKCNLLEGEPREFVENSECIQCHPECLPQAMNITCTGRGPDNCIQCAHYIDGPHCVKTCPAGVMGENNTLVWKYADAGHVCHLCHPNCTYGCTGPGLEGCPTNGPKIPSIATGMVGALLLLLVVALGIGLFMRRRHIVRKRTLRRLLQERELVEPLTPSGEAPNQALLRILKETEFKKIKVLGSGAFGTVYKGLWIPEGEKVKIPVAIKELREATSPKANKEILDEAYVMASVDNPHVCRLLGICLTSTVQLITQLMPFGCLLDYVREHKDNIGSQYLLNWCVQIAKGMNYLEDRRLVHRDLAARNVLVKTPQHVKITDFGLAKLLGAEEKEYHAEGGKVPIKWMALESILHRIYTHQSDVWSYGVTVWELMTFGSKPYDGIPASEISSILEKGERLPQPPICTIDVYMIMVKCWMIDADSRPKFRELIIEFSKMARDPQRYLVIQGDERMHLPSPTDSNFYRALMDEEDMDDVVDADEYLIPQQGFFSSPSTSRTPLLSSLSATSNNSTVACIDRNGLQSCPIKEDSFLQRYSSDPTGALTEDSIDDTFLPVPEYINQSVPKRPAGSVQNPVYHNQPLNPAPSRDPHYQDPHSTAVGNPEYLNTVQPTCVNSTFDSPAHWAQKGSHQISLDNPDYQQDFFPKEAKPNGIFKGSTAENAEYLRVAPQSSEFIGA

Procedure: After the compounds (i.e., test compounds) prepared by the above-mentioned examples described herein were added, the concentration of DMSO was 2%.The working concentration of each component in 10 μl EGFR WT kinase reaction system was: 10 μM ATP, 0.8 ng/μl EGFR WT kinase, 2 μM Tyr04 substrate.

As for `C=CC(=O)Nc1cc(Nc2ncc(Cl)c(-c3cnc4c(ccn4C)c3)n2)c(OC)cc1N1CCC(N(C)C)CC1` [US10435400, Compound Z-2], the IC50 was 0.272 µM. That is a sub-micromolar value.
